Results from patent US12702676B2, “Fosfomycin dosing regimens” (priority 2017, dated 2026).

Key:
[1] = ZEUS Phase 2/3 trial, safety (adverse events)
[2] = tested on: baseline bacterial pathogen in cUTI or AP; experiment: ZEUS Phase 2/3 noninferiority trial, efficacy at TOC in hospitalized adults; format: in vivo, human
Method: Oral step-down therapy was prohibited (FIG. 4).
A post-hoc analysis using pulsed-field gel electrophoresis (PFGE) was performed to molecularly type all baseline and TOC pathogens (both treatment arms), in order to confirm microbiological eradication/persistence; a total of 20 post-baseline pathogens were identified as unique, unrelated strains compared to baseline.

[3] = MITT Safety Population (n = 233 ZTI-01, n = 231 P-T)
[4] = Bacteremia, m-MITT (N1 19 ZTI-01, 13 P-T)
[5] = CE-TOC (N1 199 ZTI-01, 196 P-T)
[6] = ME-TOC (N1 155 ZTI-01, 145 P-T)
[7] = Original Analysis, ME-TOC (N1 155 ZTI-01, 145 P-T)
[8] = Original Analysis, m-MITT (N1 184 ZTI-01, 178 P-T)
[9] = Post-hoc Analysis Using PFGE Typing, ME-TOC (N1 155 ZTI-01, 145 P-T)
[10] = Post-hoc Analysis Using PFGE Typing, m-MITT (N1 184 ZTI-01, 178 P-T)
[11] = SIRS, m-MITT (N1 62 ZTI-01, 52 P-T)
[12] = m-MITT (N1 184 ZTI-01, 178 P-T)

## C[C@@H]1O[C@@H]1P(=O)(O)O [ZTI-01, fosfomycin]
[1]; [3]
  Any AEs: 99 (42.5%) n (%)
  Any TEAEs: 98 (42.1%) n (%)
  Drug-related SAE: 1 (0.4%) n (%)
  Drug-related TEAEs: 48 (20.6%) n (%)
  SAEs: 5 (2.1%) n (%)
  Serious TEAEs leading to study drug discontinuation: 0 (0%) n (%)
  TEAEs leading to study drug discontinuation: 7 (3.0%) n (%)
  TEAEs: Mild: 84 (36.1%) n (%)
  TEAEs: Moderate: 35 (15.0%) n (%)
  TEAEs: Severe: 5 (2.1%) n (%)
[1]; in vivo
  SAE related to study drug (1 in each treatment group): hypokalemia
[1]; majority of AEs mild to moderate
  tolerability: generally well tolerated
[1]; safety population (n=464)
  treatment-emergent adverse events (TEAEs) observed, % of patients: 42.1%
[2]; [4]
  Clinical Response at TOC: Eradication: 15 (78.9%) n (%)
  Clinical Response at TOC: Indeterminate: 2 (10.5%) n (%)
  Clinical Response at TOC: Persistence: 2 (10.5%) n (%)
  Overall Response at TOC: Eradication: 9 (47.4%) n (%)
  Overall Response at TOC: Indeterminate: 3 (15.8%) n (%)
  Overall Response at TOC: Persistence: 7 (36.8%) n (%)
  Per-patient Microbiological Response at TOC: Eradication: 9 (47.4%) n (%)
  Per-patient Microbiological Response at TOC: Indeterminate: 4 (21.2%) n (%)
  Per-patient Microbiological Response at TOC: Persistence: 6 (31.6%) n (%)
[2]; [5]
  Clinical Response at TOC: Cure: 188 (94.5%) n (%)
  Clinical Response at TOC: Failure: 11 (5.5%) n (%)
[2]; CE-TOC, 95% CI (−3.7, 6.9)
  Clinical Response at TOC: Treatment Difference (ZTI-01 vs P-T): 1.6%
[2]; [6]
  Clinical Response at TOC: Cure: 148 (95.5%) n (%)
  Clinical Response at TOC: Failure: 7 (4.5%) n (%)
[2]; ME-TOC, 95% CI (−3.5, 8.3)
  Clinical Response at TOC: Treatment Difference (ZTI-01 vs P-T): 2.4%
[2]; MITT (N1 233 ZTI-01, 231 P-T)
  Clinical Response at TOC: Cure: 211 (90.6%) n (%)
  Clinical Response at TOC: Failure: 11 (4.7%) n (%)
  Clinical Response at TOC: Indeterminate: 11 (4.7%) n (%)
[2]; MITT, 95% CI (−6.8, 4.4)
  Clinical Response at TOC: Treatment Difference (ZTI-01 vs P-T): −1.2%
[2]; [7]
  Microbiological Response at TOC: Eradication: 109 (70.3%) n (%)
  Microbiological Response at TOC: Persistence: 46 (29.7%) n (%)
[2]; [8]
  Microbiological Response at TOC: Eradication: 121 (65.8%) n (%)
  Microbiological Response at TOC: Indeterminate: 13 (7.1%) n (%)
  Microbiological Response at TOC: Persistence: 50 (27.2%) n (%)
[2]; [9]
  Microbiological Response at TOC: Eradication: 117 (75.5%) n (%)
  Microbiological Response at TOC: Persistence: 38 (24.5%) n (%)
[2]; [10]
  Microbiological Response at TOC: Eradication: 130 (70.7%) n (%)
  Microbiological Response at TOC: Indeterminate: 13 (7.1%) n (%)
  Microbiological Response at TOC: Persistence: 41 (22.3%) n (%)
[2]; [11]
  Clinical Response at TOC: Eradication: 55 (88.7%) n (%)
  Clinical Response at TOC: Indeterminate: 4 (6.5%) n (%)
  Clinical Response at TOC: Persistence: 3 (4.8%) n (%)
  Overall Response at TOC: Eradication: 41 (66.1%) n (%)
  Overall Response at TOC: Indeterminate: 5 (8.1%) n (%)
  Overall Response at TOC: Persistence: 16 (25.8%) n (%)
  Patient Microbiological response at TOC: Eradication: 41 (66.1%) n (%)
  Patient Microbiological response at TOC: Indeterminate: 7 (11.3%) n (%)
  Patient Microbiological response at TOC: Persistence: 14 (22.6%) n (%)
[2]; [12]
  Clinical Response at TOC: Cure: 167 (90.8%) n (%)
  Clinical Response at TOC: Failure: 9 (4.9%) n (%)
  Clinical Response at TOC: Indeterminate: 8 (4.3%) n (%)
[2]; m-MITT population, clinical cure plus microbiologic eradication, 6 g ZTI-01 q8h or 4.5 g P-T q8h IV
  overall success rates at TOC: 64.7%
[2]; m-MITT, TOC, 95% CI −0.4, 20.8
  difference in overall success rate (ZTI-01 vs P-T): 10.2%
[2]; m-MITT, 95% CI (−7.2, 5.6)
  Clinical Response at TOC: Treatment Difference (ZTI-01 vs P-T): −0.8%
[2]; post-hoc analysis, m-MITT, TOC
  overall success rates using unique pathogen strains typed by PFGE: 69.0%
[2]; post-hoc, 95% CI 1.3, 22.1
  difference in overall success rate using PFGE typing (ZTI-01 vs P-T): 11.7%
[2]; preferred dosing regimen 6 g tid
  effective (patients with AP): 68%
